Experimental data from patent US7259265B2, “Coumarin compounds and method for preparing and using the same” (Shanghai Institute of Organic Chemistry, Chinese Academy of …, priority 2003, dated 2007).
In brackets after ≈: the same amount, converted by molar mass. Where two headings read alike, the source gives them in different places.

Columns and labels:
[1] = Acute toxicity test, oral, ICR mice (Example 22); conditions: for mortality: single oral dose (5 g/kg for 4,4′-biisofraxidin)
Excerpt: Acute toxicity of 4,4′-biisofraxidin and Fluoconazole were simultaneously evaluated and the toxicity reaction and mortality were observed and compared for values of LD50 for ICR mice which were orally administered with 4,4′-biisofraxidin or Fluoconazole.

[2] = system: candida Albicans 01-1; test: In vitro drug sensitivity MIC test; type: cell-based
Protocol: (§1) The tested fungi were confected to a suspension with normal saline, and further diluted to a suspension with the turbidity of more than 2.0 McFarland Standards (McF). Then, the suspension was diluted 100 times with normal saline, and diluted 10 times with RPMI1640, and the sample was diluted 2 times, which was cultured for 72 to 96 hours at a 96-well culture dish while being gently agitated and assayed for photoelectric colorimetric assay at 490 nm.
(§2) Tested fungi include Saccharomyces, candida Albicans 01-5, 01-1, 02-6, candida Albicans CMCC, Aspergillus niger, Cryptococcus neoformans, Trichophyton rubrum, and Trichophyton verrucosum and MIC Results were listed at Table 2.

[3] = system: candida Albicans 02-6; test: In vitro drug sensitivity MIC test; type: cell-based
Protocol: as §1, §2

[4] = system: Aspergillus niger; test: In vitro drug sensitivity MIC test; type: cell-based
Protocol: as §1, §2

[5] = system: Trichophyton verrucosum; test: In vitro drug sensitivity MIC test; type: cell-based
Protocol: as §1, §2

[6] = system: candida Albicans CMCC; test: In vitro drug sensitivity MIC test; type: cell-based
Protocol: as §1, §2

[7] = system: Cryptococcus neoformans; test: In vitro drug sensitivity MIC test; type: cell-based
Protocol: as §1, §2

[8] = system: Trichophyton rubrum; test: In vitro drug sensitivity MIC test; type: cell-based
Protocol: as §1, §2

[9] = system: Saccharomyces; test: In vitro drug sensitivity MIC test; type: cell-based
Protocol: as §1, §2

[10] = system: candida Albicans 01-5; test: In vitro drug sensitivity MIC test; type: cell-based
Protocol: as §1, §2

[11] = system: candida Albicans; test: In vitro drug sensitivity MIC test; type: cell-based
Protocol: as §1, §2

[12] = system: candida Albicans 02-6; test: In vivo protective test in infected mice; conditions: for ED50: infection 2.07 × 10^4 CFU/ml; for Survival: 10 mice, within 7 days after infection
Protocol: 2˜3 monocolonies of selected tested fungus were inoculated in Sabouraud liquor culture medium, which was cultured for 18 hours at 37° C., and then it was diluted with 5% sterilized dried yeast liquor for next uses.
3. Healthy mice (lived in Kunming, China) weighed 18˜22 g were divided into groups randomly with 5 mice in each group. The fungal liquor 0.5 ml was injected into a mouse, which was observed continuously for 7 days after infection. Mortality of the mice was recorded, and the minimum fungal dose that caused the mice be with a 100% mortality was named as MLD, which also was regarded as infection fungal dose in vivo protective test.
All test drugs were confected to requested concentration with 0.5% CMC including Fluoroconazole and 4,4′-biisofraxidin.
Test mice were divided into groups randomly according to gender and weight, 5 males and 5 females in each group. The infection fungal liquor 0.5 ml was injected into each mouse at the abdominal region at 0.5 ml per mouse. Two hours prior to the infection and 4 hours after infection, mice were orally administered with Fluoroconazole or 4,4′-biisofraxidin by intragastric gavage at various concentration. The comparative group was tested at the same time. Mortality was recorded within 7 days after infection, and effective dosage at half (median effective dose, ED50) and 95% confidence limit were calculated by the Bliss's method. Fluoroconazole and 4,4′-biisofraxidin were tested on their in vivo protection activity on candida Albicans 02-6 infected mice, and ED50 was calculated by the Bliss's method at 95% confidence limit.

[13] = Comparison of liver toxicity, serum ALT/AST of ICR mice; type: in vivo; conditions: 1.6 g/kg oral, mean (values of each sample)
Protocol: ICR mice were orally administered with 4,4′-biisofraxidin or Fluoconazole at the same dosage of 1.6 g/kg, and blood samples were taken at 4 hours and 24 hours after the administration, and serum was separated from blood samples for testing liver indices of asparate aminotransferase test (AST) and alanine aminotransferase test (ALT).

[14] = Acute toxicity test in vivo in mice (Example 21); conditions: for death: after testing 14 days, 14 mice (4,4′-biisofraxidin), 4 mice (Fluoroconazole)
[15] = system: candida Albicans; test: Inhibiting zone on candida Albicans; type: cell-based; conditions: at the concentration of 10 μg/ml
Protocol: [drawing 30] was tested by Jiangsu Hengrui Pharmaceutical Co., Ltd. The bioactivity against fungal infection of various antibiotics were tested.

[16] = system: S. Typhimurium TA97, TA98, TA 100, and TA102; test: Bacteria reverse mutation test; type: cell-based; conditions: without S9
Protocol: According to the conditions of mutation test in the Guide Compilation of New Medicament (Western Medicament) Before Clinic (Pharmacy, Pharmacology, and Toxicology) (Edition July 1993, Bureau of Pharmaceutical Policy, Chinese Department of Health), 4,4′-biisofraxidin was tested at a dosage of 5, 50, 500, 1000, and 5000 μg/dish in the system without S9.

[17] = system: CHL cell; test: Chromosome aberration test of CHL mammal cell; type: cell-based; conditions: for mutagenicity: 24 hours, -S9
Protocol: The purpose of the Example was to assess whether 4,4′-biisofraxidin caused the chromosome aberration of CHL cell. Firstly, Median Inhibitory Concentration (IC50) was obtained by general method and regarded as the maximum dosage. Then, the maximum dosage was diluted at 0.5 time at multiple times to get three dosage groups. The experiment was conducted at a —S9 system (without hamster liver S9 system). […] The antifungal compound was added to the cultured cell directly for 24 hours in order to observe whether 4,4′-biisofraxidin caused chromosome aberration in CHL cell. […] Therefore, 4,4′-biisofraxidin was a weak mutagen at a relatively high dosage under the test conditions.

[18] = system: mice medulla polychromatic erythrocyte; test: Micronucleus test of mice medulla; type: in vivo, ICR mice
Protocol: Seventy ICR mice were randomly divided into 7 groups with 10 mice per group having 5 males and 5 females in each group. The maximum tolerance dose (MTD) of the mice was more than 5000 mg/kg for 4,4′-biisofraxidin by intragastric gavage, so that the maximum dosage was 5000 mg/kg. Four dosage groups were set up with dosage amount of 5000, 2500, 1250, and 625 mg/kg, one negative and one positive control group. The intragastric gavage was carried out at once per day consecutively for 2 days. Samples were taken at 24 hours after the last intragastric administration and inspected under microscope.

[19] = candida Albicans, second strain without code (r8)
[20] = drug dose 65.5 mg/kg, intragastric gavage
[21] = drug dose 89.2 mg/kg, intragastric gavage
[22] = drug dose 102.4 mg/kg, intragastric gavage
[23] = drug dose 128 mg/kg, intragastric gavage
[24] = drug dose 160 mg/kg, intragastric gavage
[25] = drug dose 200 mg/kg, intragastric gavage

With `OC(Cn1cncn1)(Cn1cncn1)c1ccc(F)cc1F` [Fluoroconazole, reference compound] the toxicity reaction ([1]; single oral dose) was “dispirited and inert”, the mortality [1] was 2/4 and the MIC ([2]; Candida albicans) was 128 µg/mL (≈ 418 µM). It also gave an MIC ([3]; read-out: MIC) of 64 µg/mL (≈ 209 µM), an MIC [4] of over 128 µg/mL and an MIC [5] of 128 µg/mL (≈ 418 µM). For the same molecule, the MIC ([6]; read-out: MIC) was 64 µg/mL (≈ 209 µM), the MIC ([7]; read-out: MIC) was 16 µg/mL (≈ 52.2 µM) and the MIC ([8]; read-out: MIC) was 16 µg/mL (≈ 52.2 µM). The MIC ([9]; read-out: MIC) was 64 µg/mL (≈ 209 µM), the MIC ([10]; Candida albicans) was 128 µg/mL (≈ 418 µM) and the MIC ([11]; Candida albicans) was over 128 µg/mL. For the same molecule, the MIC [11, 19] was over 128 µg/mL, the ED50 ([12]; Candida albicans, Bliss's method, intragastric gavage, read-out: ED50) was 136 mg/kg and the “Survival rate (%)” value [12, 20] was 0%. The Survival [12, 20] was 0, the “Survival rate (%)” value [12, 21] was 20% and the Survival [12, 21] was 2. The “Survival rate (%)” value [12, 22] was 40%, the Survival [12, 22] was 4 and the “Survival rate (%)” value [12, 23] was 40%. For the same molecule, the Survival [12, 23] was 4, the “Survival rate (%)” value [12, 24] was 60% and the Survival [12, 24] was 6. The “Survival rate (%)” value [12, 25] was 80%, the Survival [12, 25] was 8 and the “ALT (U/L)” value ([13]; 4 hours after treatment) was 84.5 (87, 82) U/L. For the same molecule, the “AST (U/L)” value ([13]; 4 hours after treatment) was 189.5 (155, 224) U/L, the “ALT (U/L)” value ([13]; 24 hours after treatment) was 53.5 (40, 67) U/L and the “AST (U/L)” value ([13]; 24 hours after treatment) was 99 (73, 125) U/L. For the same molecule, the LD50 at 14 days ([14]; ICR, mouse, in vivo, 1.6 g/kg) was about 1600 mg/kg, the death [14] was 2 and the “toxicity relative to 4,4′-biisofraxidin” value ([14]; mouse, in vivo) was “three times larger”.
With 4,4′-biisofraxidin the inhibiting zone [15] was 10 mm, the toxicity reaction ([1]; single oral dose) was “no obvious toxicity reaction” and the mortality [1] was 0/10. The MTD ([1]; single oral dose, 14 days observation) was “higher than 5 g/kg”, the MIC ([2]; candida Albicans 01-1) was 64 µg/mL and the MIC [3] was 32 µg/mL. The MIC [4] was 128 µg/mL, the MIC [5] was 128 µg/mL and the MIC [6] was over 128 µg/mL. The MIC [7] was 64 µg/mL, the MIC [8] was 16 µg/mL and the MIC [9] was over 128 µg/mL. The MIC ([10]; candida Albicans 01-5) was 64 µg/mL, the MIC ([11]; candida Albican, summary in the conclusion) was at least 128 µg/mL and the MIC ([11]; candida Albicans, first strain without code (r7)) was 64 µg/mL. The MIC [11, 19] was over 128 µg/mL, the “95% confidence limit of ED50” value ([12]; Bliss's method) was “(127.97–130.7) mg/kg” and the ED50 ([12]; Bliss's method, intragastric gavage) was 149.50 mg/kg. For the same molecule, the “Survival rate (%)” value [12, 20] was 0%, the Survival [12, 20] was 0 and the “Survival rate (%)” value [12, 21] was 10%. For the same molecule, the Survival [12, 21] was 1, the “Survival rate (%)” value [12, 22] was 20% and the Survival [12, 22] was 3. For the same molecule, the “Survival rate (%)” value [12, 23] was 40%, the Survival [12, 23] was 4 and the “Survival rate (%)” value [12, 24] was 60%. The Survival [12, 24] was 6, the “Survival rate (%)” value [12, 25] was 70% and the Survival [12, 25] was 7. The “protective effect in vivo” value ([12]; intragastric gavage) was “obvious protective effect”, the “effect on growth of bacteria” value ([16]; high dose 5000 μg/dish) was “inhibit the growth” and the gene mutation ([16]; other dosages) was “couldn't induce gene mutation”. For the same molecule, the “effect on growth of bacteria” value ([16]; other four doses (5, 50, 500, 1000 μg/dish)) was “no obvious effect”, the “Median Inhibitory Concentration (IC50)” value ([17]; CHL cell) was 248 µg/mL and the mutagenicity ([17]; high dosage 248 μg/ml) was 12%. The mutagenicity ([17]; low to medium dosage (62, 124 μg/ml)) was 1%, the chromosome aberration conclusion ([17]; relatively high dosage) was “weak mutagen” and the death [14] was “no death”. For the same molecule, the MTD ([14]; mice, 14 days) was “more than 5 g/kg”, the “half lethal dose (LD50)” value ([14]; mice, 14 days) was “undetectable” and the micronucleus number ([18]; 5000, 2500, 1250, 625 mg/kg, intragastric, once per day for 2 days, 24 hours after last dose) was “no effect on inducing increase in micronucleus number”. For the same molecule, the “maximum tolerance dose (MTD)” value ([18]; mice, intragastric gavage) was “more than 5000 mg/kg”.
